In article PMC12394658, “Discovery of Zharp1-163 as a dual inhibitor of ferroptosis and necroptosis for the treatment of inflammatory disorders and kidney injury” (Cell Death Discovery, 2025):

Tests used:
Experiment in all cases: biochemical
Design in all cases: Kinase selectivity panel of 81 human kinases, ADP-Glo or HTRF, per cent inhibition at 1 uM
NEK2 = NEK2 (Homo sapiens, UniProt P51955)
Method in brief: (§1)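 Kinase-panel selectivity profiling of 81 kinases with compound at 1000 nM.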

SYK = SYK (Homo sapiens, UniProt P43405)
Method in brief: as §1

WEE1 = WEE1 (Homo sapiens, UniProt P30291)
Method in brief: as §1

RSK1 = biological target: T1, RSK1 (Homo sapiens, UniProt Q15418)
T1 construct: gene RPS6KA1
Method in brief: as §1

PKACα = biological target: T2, PKACα (Homo sapiens, UniProt P17612)
T2 construct: gene PRKACA
Method in brief: as §1

MLK1 = biological target: T3, MLK1 (Homo sapiens, UniProt P80192)
T3 construct: gene MAP3K9
Method in brief: as §1

EPHA2 = EPHA2 (Homo sapiens, UniProt P29317)
Method in brief: as §1

IRAK4 = IRAK4 (Homo sapiens, UniProt Q9NWZ3)
Method in brief: as §1

MRCKβ = biological target: T4, MRCKβ (Homo sapiens, UniProt Q9Y5S2)
T4 construct: gene CDC42BPB
Method in brief: as §1

TGFβR1 = biological target: T5, TGFβR1 (Homo sapiens, UniProt P36897)
T5 construct: gene TGFBR1
Method in brief: as §1

IGF1R = IGF1R (Homo sapiens, UniProt P08069)
Method in brief: as §1

KDR = KDR (Homo sapiens, UniProt P35968)
Method in brief: as §1

Sequence of IGF1R (P08069 whole entry): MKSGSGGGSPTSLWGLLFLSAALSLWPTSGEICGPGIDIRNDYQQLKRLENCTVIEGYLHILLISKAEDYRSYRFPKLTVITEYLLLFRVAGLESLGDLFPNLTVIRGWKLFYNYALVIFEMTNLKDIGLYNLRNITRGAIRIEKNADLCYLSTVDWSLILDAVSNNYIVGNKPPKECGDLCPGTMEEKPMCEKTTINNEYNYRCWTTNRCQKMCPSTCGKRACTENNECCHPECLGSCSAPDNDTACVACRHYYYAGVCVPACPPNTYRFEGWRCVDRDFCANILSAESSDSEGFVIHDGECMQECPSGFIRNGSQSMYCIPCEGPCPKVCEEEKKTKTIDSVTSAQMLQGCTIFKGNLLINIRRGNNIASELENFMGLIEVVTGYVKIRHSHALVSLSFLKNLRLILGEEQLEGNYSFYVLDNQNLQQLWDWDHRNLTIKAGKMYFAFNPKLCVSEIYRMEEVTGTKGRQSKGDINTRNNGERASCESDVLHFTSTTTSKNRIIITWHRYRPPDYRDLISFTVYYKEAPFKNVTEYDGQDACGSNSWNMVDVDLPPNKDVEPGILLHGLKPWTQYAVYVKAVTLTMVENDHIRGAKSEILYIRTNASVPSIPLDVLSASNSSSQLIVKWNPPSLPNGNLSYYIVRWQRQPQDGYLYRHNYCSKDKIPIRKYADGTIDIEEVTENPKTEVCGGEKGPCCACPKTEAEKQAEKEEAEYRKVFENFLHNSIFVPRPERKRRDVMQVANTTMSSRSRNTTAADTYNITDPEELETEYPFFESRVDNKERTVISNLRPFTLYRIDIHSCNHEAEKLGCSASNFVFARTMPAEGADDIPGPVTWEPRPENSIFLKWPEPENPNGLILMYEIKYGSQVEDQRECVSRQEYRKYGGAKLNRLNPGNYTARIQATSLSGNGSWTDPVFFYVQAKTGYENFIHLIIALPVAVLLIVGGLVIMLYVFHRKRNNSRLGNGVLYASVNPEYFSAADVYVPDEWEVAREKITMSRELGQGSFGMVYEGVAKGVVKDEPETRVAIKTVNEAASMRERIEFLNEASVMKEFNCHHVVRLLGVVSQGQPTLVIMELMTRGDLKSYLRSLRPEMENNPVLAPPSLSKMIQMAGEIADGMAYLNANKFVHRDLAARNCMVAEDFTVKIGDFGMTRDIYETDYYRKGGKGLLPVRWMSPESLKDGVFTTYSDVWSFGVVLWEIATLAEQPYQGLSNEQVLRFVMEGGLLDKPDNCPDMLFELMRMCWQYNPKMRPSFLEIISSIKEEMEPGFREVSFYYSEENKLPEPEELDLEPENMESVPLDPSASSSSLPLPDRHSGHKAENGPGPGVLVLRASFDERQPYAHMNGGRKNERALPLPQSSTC
T3 sequence (P80192 whole entry): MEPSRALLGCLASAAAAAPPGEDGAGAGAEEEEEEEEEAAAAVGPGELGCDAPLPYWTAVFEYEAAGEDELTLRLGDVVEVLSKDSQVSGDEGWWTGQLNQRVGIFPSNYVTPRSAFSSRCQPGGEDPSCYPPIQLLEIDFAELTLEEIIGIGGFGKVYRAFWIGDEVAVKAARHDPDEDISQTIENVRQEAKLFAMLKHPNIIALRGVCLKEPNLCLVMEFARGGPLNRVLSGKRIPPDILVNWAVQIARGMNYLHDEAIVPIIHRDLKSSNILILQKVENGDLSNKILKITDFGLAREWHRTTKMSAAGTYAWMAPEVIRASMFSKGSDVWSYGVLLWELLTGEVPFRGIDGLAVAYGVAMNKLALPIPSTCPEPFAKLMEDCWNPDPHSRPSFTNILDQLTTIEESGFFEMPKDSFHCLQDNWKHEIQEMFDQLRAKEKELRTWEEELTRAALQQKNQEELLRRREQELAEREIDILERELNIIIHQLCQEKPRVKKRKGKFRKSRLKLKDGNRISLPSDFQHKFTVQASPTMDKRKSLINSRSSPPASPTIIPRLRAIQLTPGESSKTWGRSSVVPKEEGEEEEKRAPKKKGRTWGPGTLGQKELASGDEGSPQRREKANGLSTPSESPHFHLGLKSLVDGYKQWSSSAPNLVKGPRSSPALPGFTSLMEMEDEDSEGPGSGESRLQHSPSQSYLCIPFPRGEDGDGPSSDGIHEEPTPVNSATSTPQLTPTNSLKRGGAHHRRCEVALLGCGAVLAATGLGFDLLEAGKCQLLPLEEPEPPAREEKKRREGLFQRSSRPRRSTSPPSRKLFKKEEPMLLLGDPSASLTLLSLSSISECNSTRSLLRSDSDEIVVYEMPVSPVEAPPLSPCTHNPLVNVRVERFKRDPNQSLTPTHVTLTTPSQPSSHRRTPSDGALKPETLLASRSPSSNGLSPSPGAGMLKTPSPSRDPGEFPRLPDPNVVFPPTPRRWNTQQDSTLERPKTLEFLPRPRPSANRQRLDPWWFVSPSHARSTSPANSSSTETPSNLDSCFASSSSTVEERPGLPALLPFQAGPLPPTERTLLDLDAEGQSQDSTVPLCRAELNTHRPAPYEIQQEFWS
Sequence of NEK2 (P51955 whole entry): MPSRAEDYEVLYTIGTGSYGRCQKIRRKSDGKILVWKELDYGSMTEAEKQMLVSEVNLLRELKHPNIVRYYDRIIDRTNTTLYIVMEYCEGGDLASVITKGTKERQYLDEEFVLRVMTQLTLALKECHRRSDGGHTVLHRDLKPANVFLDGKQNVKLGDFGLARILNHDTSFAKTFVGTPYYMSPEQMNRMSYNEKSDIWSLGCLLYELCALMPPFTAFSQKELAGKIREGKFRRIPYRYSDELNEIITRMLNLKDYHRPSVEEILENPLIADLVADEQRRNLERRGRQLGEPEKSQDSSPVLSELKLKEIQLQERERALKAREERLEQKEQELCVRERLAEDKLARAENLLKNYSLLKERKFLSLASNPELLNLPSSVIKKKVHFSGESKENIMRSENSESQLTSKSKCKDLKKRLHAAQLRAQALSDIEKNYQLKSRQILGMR
Sequence of KDR (P35968 whole entry): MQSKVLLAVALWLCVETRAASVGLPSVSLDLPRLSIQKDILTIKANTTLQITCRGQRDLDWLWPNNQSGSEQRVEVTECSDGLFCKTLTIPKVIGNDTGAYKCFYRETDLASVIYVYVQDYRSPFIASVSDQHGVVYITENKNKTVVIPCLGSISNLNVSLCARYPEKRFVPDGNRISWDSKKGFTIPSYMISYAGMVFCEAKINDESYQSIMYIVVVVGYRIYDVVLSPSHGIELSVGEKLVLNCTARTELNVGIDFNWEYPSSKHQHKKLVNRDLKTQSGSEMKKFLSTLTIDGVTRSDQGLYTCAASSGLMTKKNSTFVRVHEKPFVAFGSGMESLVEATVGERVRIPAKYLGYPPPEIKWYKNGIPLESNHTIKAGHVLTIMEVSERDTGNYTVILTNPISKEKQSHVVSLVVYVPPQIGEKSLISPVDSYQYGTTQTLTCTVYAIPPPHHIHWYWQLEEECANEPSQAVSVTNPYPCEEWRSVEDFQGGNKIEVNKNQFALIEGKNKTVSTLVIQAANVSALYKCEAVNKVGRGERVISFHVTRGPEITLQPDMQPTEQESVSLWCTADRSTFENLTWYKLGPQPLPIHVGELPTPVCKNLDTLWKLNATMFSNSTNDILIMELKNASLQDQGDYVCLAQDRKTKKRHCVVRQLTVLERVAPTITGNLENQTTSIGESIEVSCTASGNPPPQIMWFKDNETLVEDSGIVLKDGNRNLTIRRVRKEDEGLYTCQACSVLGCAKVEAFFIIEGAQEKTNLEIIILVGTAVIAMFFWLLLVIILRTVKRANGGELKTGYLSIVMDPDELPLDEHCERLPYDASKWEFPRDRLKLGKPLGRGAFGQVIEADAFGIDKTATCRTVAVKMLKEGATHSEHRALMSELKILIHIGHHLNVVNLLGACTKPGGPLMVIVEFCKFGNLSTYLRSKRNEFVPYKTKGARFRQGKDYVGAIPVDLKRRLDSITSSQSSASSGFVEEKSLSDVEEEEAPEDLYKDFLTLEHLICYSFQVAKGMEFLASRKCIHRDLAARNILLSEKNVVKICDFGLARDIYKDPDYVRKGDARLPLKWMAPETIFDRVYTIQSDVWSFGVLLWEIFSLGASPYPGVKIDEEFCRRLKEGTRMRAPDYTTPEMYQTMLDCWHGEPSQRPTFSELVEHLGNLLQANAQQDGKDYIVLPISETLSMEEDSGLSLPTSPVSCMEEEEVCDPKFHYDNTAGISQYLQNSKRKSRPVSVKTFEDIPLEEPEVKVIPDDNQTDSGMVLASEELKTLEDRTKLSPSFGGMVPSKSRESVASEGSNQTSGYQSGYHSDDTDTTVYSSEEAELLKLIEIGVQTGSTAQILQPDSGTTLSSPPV
Sequence of IRAK4 (Q9NWZ3 whole entry): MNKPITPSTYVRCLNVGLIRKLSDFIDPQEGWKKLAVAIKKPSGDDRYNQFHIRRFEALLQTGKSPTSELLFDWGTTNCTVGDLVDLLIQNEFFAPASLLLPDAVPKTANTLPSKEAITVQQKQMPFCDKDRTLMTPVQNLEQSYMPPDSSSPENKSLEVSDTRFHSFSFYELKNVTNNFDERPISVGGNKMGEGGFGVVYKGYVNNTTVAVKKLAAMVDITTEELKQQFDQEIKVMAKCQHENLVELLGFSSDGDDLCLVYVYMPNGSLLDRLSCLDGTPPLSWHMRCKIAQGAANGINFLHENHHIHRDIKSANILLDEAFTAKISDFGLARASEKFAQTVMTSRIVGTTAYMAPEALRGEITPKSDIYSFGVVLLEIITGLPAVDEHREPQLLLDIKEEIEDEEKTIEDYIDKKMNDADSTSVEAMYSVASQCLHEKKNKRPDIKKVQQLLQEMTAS

- inhibition at 1 µM (NEK2; replicate Data1): -4.5%
- inhibition at 1 µM (NEK2; replicate Data2): 1.76%
- inhibition at 1 µM (SYK; replicate Data1): 5.12%
- inhibition at 1 µM (SYK; replicate Data2): 4.56%
- inhibition at 1 µM (WEE1; replicate Data1): 9.26%
- inhibition at 1 µM (WEE1; replicate Data2): 4.33%
- inhibition at 1 µM (RSK1; replicate Data1): 6.09%
- inhibition at 1 µM (RSK1; replicate Data2): 5.81%
- inhibition at 1 µM (PKACα; replicate Data1): -0.64%
- inhibition at 1 µM (PKACα; replicate Data2): 3.94%
- inhibition at 1 µM (MLK1; replicate Data1): 21.2%
- inhibition at 1 µM (MLK1; replicate Data2): 32.7%
- inhibition at 1 µM (EPHA2; replicate Data1): -8.55%
- inhibition at 1 µM (EPHA2; replicate Data2): -9.14%
- inhibition at 1 µM (IRAK4; replicate Data1): 8.12%
- inhibition at 1 µM (IRAK4; replicate Data2): 17.2%
- inhibition at 1 µM (MRCKβ; replicate Data1): -0.71%
- inhibition at 1 µM (MRCKβ; replicate Data2): 4.66%
- inhibition at 1 µM (TGFβR1; replicate Data1): 7.16%
- inhibition at 1 µM (TGFβR1; replicate Data2): 7.76%
- inhibition at 1 µM (IGF1R; replicate Data1): -8.23%
- inhibition at 1 µM (IGF1R; replicate Data2): -5.7%
- inhibition at 1 µM (KDR; replicate Data1): -2.59%
- inhibition at 1 µM (KDR; replicate Data2): -4.74%
Structure (SMILES): Nc1cn2cc(-c3cnc4c(c3)N(C(=O)OC3CCCCC3)CCO4)ccc2n1 [Zharp1-163]
